Measurements taken from ChEMBL document CHEMBL1201862, “PubChem BioAssay data set” (2004).
Calls of active or inactive are those of the source.

Key:
HEK293 [1] = test: optical interference in Abeta FP readout, dose response, artefact control for IDE activator project, biochemical, fluorescence polarization (AID 588442); format: functional, cell-based; conditions: Homo sapiens
Insulin-degrading enzyme [2] = target: T1, Insulin-degrading enzyme (Homo sapiens, UniProt P14735); test: recombinant IDE activation, cell-free – biochemical, fluorescence polarization, counter-screen for IDE activator project, dose response (AID 588681)
T1 sequence (P14735 whole entry): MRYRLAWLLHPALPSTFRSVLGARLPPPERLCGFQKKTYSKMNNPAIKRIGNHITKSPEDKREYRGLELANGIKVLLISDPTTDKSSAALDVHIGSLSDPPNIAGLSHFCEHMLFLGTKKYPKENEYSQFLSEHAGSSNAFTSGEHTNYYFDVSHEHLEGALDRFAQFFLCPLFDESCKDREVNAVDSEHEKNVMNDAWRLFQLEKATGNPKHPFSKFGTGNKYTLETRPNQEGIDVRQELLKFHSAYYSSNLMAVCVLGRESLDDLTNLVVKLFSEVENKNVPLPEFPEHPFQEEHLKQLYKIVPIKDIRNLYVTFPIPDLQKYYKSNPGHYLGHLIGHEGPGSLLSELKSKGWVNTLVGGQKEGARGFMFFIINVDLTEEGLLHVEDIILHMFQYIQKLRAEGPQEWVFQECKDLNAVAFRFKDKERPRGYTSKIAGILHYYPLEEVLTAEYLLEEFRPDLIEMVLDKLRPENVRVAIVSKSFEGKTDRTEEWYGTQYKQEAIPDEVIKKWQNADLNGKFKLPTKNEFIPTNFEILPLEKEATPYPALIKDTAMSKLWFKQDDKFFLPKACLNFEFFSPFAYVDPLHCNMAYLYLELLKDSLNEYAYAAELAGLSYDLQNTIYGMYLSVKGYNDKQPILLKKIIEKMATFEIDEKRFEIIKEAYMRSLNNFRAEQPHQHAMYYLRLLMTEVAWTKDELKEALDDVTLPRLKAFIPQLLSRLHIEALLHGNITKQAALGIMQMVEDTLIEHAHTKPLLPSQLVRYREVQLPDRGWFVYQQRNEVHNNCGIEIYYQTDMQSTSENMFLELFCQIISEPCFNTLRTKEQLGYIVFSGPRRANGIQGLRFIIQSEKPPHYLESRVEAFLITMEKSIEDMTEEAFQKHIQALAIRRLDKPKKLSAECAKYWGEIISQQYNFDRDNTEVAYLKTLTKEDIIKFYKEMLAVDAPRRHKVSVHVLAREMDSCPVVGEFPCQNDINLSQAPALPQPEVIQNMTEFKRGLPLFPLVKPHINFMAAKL

HEK293 [3] = test: membrane integrity loss in HEK cells – cell-based, fluorescence, cytotoxicity control for IDE activator project, dose response (AID 588440); format: functional; conditions: Homo sapiens;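 note: cytotoxicity by LDH release measuring loss of membrane integrity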
Insulin-degrading enzyme [4] = target: T1, Insulin-degrading enzyme; test: cellular IDE activation of Abeta substrate cleavage – fluorescence polarization, HEK cells, dose response (AID 588439); format: functional, cell-based
[5] = target: Beta-2 adrenergic receptor (Homo sapiens, UniProt P07550); test: ADRB2 activation measured by internalization – cell-based, FAP fluorogen, flow cytometry, cherry pick 1, dose response (AID 588763); format: functional
Chain of Beta-2 adrenergic receptor (P07550 whole entry): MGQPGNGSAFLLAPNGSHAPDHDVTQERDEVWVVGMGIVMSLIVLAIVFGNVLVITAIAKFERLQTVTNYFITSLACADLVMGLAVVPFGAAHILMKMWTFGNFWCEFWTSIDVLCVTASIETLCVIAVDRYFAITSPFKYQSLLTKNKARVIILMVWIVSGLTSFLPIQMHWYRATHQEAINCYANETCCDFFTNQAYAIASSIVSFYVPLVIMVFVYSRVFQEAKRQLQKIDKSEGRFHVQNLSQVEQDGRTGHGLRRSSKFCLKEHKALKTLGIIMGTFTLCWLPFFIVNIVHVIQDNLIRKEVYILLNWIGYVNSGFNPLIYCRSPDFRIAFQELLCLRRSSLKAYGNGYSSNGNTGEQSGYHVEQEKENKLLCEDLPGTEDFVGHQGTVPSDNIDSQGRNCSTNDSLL

[6] = target: Voltage-gated inwardly rectifying potassium channel KCNH2 (Homo sapiens, UniProt Q12809); conditions: Potency;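 note: confirmatory quantitative high-throughput screen measuring inhibition of hERG channel activity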
Chain of Voltage-gated inwardly rectifying potassium channel KCNH2 (Q12809 whole entry): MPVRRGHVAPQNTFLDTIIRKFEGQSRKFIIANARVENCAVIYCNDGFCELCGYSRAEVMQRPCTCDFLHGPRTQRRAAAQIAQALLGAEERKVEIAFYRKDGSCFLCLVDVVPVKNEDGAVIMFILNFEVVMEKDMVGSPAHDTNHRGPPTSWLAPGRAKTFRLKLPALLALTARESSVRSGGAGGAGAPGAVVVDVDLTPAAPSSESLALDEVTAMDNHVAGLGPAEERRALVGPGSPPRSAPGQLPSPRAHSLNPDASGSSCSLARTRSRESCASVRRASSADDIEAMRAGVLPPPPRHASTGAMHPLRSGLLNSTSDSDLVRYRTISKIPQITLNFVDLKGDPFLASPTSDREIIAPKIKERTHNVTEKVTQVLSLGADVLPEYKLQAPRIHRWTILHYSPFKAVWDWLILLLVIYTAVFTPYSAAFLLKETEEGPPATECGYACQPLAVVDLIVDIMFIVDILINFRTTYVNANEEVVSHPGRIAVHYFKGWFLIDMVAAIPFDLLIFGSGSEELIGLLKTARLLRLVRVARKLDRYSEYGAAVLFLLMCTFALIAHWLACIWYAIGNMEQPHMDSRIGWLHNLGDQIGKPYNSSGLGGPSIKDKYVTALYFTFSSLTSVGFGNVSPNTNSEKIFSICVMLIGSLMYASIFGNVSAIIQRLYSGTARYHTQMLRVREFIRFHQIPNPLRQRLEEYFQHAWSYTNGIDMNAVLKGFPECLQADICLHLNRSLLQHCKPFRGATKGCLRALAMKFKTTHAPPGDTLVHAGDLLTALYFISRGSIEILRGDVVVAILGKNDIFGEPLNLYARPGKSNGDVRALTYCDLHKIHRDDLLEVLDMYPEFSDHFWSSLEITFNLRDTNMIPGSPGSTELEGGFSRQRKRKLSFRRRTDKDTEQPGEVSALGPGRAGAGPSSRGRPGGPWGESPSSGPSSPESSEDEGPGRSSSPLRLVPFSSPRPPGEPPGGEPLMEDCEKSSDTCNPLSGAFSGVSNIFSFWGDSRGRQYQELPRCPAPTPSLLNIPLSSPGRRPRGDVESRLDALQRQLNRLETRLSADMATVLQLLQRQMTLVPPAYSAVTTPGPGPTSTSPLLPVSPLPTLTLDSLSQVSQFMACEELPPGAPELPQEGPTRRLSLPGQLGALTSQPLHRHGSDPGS

[7] = target: T2, Probable nicotinate-nucleotide adenylyltransferase (Staphylococcus aureus (strain N315), UniProt P65502); format: functional, Staphylococcus aureus subsp. aureus N315;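 for IC50 Mean: confirmatory dose-response retesting of NadD inhibitor hits first found in an ultra-high-throughput screen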
T2 sequence (P65502 whole entry): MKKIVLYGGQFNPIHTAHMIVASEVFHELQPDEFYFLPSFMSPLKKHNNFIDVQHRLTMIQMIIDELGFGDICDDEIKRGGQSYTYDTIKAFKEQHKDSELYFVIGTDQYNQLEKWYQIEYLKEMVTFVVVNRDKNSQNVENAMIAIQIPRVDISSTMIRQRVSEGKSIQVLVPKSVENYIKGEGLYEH

[8] = target: T2, Probable nicotinate-nucleotide adenylyltransferase; format: functional, Staphylococcus aureus subsp. aureus N315; conditions: read-out: IC50_Mean
[9] = target: ATP-dependent molecular chaperone HSP82 (Candida albicans (strain WO-1) (Yeast), UniProt C4YTQ8); test: steroid-induced GRE reporter decrease in yeast – S. cerevisiae, luminescence, Hsp90 inhibitor project, dose response (AID 2400); format: functional, cell-based;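 note: beta-galactosidase luminescence from glucocorticoid response element reporter as proxy for Hsp90 function; inhibitor potency where signal loss means Hsp90 inhibition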
Chain of ATP-dependent molecular chaperone HSP82 (C4YTQ8 whole entry): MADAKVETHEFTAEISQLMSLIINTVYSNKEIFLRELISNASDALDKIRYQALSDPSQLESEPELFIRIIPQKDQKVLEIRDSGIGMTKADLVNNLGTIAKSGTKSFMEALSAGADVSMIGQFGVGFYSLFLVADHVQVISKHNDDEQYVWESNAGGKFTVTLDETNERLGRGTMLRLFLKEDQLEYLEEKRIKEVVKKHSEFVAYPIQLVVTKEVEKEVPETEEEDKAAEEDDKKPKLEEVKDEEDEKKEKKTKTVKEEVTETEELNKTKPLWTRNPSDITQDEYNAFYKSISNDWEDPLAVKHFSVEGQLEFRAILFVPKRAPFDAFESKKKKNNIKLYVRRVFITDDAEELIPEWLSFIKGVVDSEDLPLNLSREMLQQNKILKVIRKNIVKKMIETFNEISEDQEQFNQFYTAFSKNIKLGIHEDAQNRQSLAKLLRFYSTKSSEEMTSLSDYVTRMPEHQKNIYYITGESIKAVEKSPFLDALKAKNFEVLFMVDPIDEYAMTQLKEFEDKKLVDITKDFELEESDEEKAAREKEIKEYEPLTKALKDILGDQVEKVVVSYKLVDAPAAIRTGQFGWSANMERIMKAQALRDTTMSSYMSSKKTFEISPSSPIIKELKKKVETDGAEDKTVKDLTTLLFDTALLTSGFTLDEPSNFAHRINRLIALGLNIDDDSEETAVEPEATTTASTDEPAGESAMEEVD

[10] = fluconazole-exposed Candida albicans growth modulators – fluorescence, retest, confirmation (AID 2467); format: functional, cell-based
[11] = target: Serine/threonine-protein phosphatase (Candida dubliniensis (strain CD36 / CBS 7987 / NCPF 3949 / NRRLY-17841) (Yeast), UniProt B9W6M3); test: blockers of CaCl2-induced CDRE-lacZ signaling – S. cerevisiae, luminescence, secondary, dose response (AID 2388); format: functional, cell-based;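 note: yeast reporter cells carrying a calcineurin-responsive lacZ construct stimulated with calcium chloride; luminescent beta-galactosidase reporter signal in whole cells rather than isolated phosphatase activity; potency for inhibition where a drop in reporter signal means calcineurin blockade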
Chain of Serine/threonine-protein phosphatase (B9W6M3 whole entry): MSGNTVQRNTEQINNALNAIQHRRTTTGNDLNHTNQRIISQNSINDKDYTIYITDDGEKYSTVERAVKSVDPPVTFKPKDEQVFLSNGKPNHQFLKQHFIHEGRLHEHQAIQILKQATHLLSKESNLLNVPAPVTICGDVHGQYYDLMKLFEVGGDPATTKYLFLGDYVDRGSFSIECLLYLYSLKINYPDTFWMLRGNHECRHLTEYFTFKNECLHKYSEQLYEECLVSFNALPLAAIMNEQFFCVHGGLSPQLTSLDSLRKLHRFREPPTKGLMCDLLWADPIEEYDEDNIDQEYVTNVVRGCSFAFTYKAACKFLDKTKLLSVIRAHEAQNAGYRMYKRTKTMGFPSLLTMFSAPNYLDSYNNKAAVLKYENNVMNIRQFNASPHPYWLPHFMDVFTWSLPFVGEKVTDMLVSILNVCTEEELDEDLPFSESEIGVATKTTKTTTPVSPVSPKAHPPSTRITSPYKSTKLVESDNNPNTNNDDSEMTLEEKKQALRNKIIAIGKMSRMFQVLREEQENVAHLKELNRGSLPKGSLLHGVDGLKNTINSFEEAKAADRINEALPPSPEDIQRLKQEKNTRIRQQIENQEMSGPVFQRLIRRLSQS

[12] = NIH-3T3 fibroblast cytotoxicity, dose response, cytotoxicity control, cell-based, fluorescence, Alamar Blue, secondary assay (AID 2327); format: functional;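 note: NIH-3T3 mouse fibroblasts cultured with fluconazole at 8 µg/mL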
CHO = CHO cell viability loss, potency – luminescence, cytotoxicity control for TLR9-MyD88 binding inhibitor project, dose response (AID 588339); format: functional, cell-based, hamster; conditions: Cricetulus griseus;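 note: CHO cells stably coexpressing TLR9 and MyD88 fusions from primary screen; compound exposure lasted 48 hours before viability readout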
Beta Lactamase = Beta Lactamase (Pseudomonas aeruginosa, UniProt Q932Y6); test: BLA reporter interference, concentration series – BLA reporter cells, FRET fluorescence, artefact control for TLR9-MyD88 binding inhibitor project, dose response (AID 588341); format: cell-based;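 note: cell based assay in CHO-K1 cells stably expressing beta-lactamase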
Chain of Beta Lactamase (Q932Y6 whole entry): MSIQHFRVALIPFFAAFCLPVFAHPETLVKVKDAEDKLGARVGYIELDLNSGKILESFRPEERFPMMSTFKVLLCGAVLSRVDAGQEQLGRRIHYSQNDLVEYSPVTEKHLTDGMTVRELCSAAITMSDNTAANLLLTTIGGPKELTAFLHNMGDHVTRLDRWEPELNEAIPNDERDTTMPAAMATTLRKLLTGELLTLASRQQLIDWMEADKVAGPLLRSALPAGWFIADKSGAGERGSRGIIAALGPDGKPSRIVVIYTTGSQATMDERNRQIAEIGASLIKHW

[13] = target: Dual specificity tyrosine-phosphorylation-regulated kinase 1A (Rattus norvegicus, UniProt Q63470); format: biochemical, Homo sapiens
Cysteine protease ATG4B = target: T3, Cysteine protease ATG4B (Homo sapiens, UniProt Q9Y4P1); format: functional;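 note: Fluorescence-based dose-response confirmation assay measuring inhibition of ATG4B activity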
T3 sequence (Q9Y4P1 whole entry): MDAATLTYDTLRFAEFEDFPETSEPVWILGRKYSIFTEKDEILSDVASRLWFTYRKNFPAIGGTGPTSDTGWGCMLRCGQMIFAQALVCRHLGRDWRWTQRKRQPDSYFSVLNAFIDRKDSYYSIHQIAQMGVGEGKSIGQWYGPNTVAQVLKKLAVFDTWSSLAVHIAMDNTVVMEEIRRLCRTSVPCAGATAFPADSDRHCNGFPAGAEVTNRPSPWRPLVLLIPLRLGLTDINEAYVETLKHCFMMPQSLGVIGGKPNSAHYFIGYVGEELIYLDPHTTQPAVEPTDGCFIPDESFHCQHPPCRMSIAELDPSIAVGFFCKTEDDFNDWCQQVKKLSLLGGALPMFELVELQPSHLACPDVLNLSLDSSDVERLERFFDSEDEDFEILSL

Phospholipase A2 = Phospholipase A2 (Homo sapiens, UniProt P04054); format: functional;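 note: confirmatory dose-response counterscreen on phospholipase A2, testing hits that came from an ultra-high-throughput screen for ATG4B inhibitors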
Chain of Phospholipase A2 (P04054 whole entry): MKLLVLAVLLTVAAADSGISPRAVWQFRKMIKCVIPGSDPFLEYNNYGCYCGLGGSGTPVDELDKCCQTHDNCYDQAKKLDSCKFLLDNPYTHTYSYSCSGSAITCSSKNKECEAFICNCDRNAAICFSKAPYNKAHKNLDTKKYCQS

[14] = Luminescence Cell-Based Dose Response HTS to Identify Activators of Luciferase Translation or Activity in H4 […] Cells. [Related pubchem assays: 1829 (Project Summary), 1814 (Primary HTS)]; format: functional
H4 = test: Luminescence Cell-Based Dose Response HTS to Identify Activators of 5'UTR Stem-Loop Driven Prion Protein mRNA Translation in H4 Neuroglioblastoma Cells. [Related pubchem assays: 1829 (Project Summary), 1814 (Primary HTS)]; format: functional; conditions: Homo sapiens

With `CCC1CCCCN1S(=O)(=O)c1ccc(S(=O)(=O)N2CCN(S(=O)(=O)CC)CC2)cc1` (stereo not given) the EC50 (HEK293 [1]) was > 55.9 µM (inactive), the EC50 (Insulin-degrading enzyme [2]) was > 54.7 µM (inactive) and the IC50 (HEK293 [3]) was > 9.91 µM (active). The EC50 (Insulin-degrading enzyme [4]) was > 54.7 µM (inactive).
With `CCOC(=O)c1ccc(NC(=O)Cc2coc3cc4c(cc23)CCC4)cc1` the EC50 [5] was 7.53 µM (active).
In the case of `NC1(C(=O)O)CC1`, the AC50 [6] is reported as 31.6 µM (inconclusive).
In the case of `CCN(Cc1ccccc1)S(=O)(=O)c1ccc(C(=O)Nc2nnc(-c3ccccc3OC)o2)cc1`, the IC50 [7] is reported as 8.19 µM (active), the IC50 [8] is reported as 56.5 µM (active) and the EC50 [9] is reported as 19.9 µM (active). The EC50 [10] was 0.468 µM (active), the EC50 [11] was > 180 µM (inactive) and the EC50 [12] was 39.3 µM (active).
For `O=[N+]([O-])c1ccc(-c2ccc(/C=N/Nc3nc(NCc4ccccc4)nc(N4CCOCC4)n3)o2)cc1`, the IC50 (CHO) was 15.9 µM (inactive) and the IC50 (Beta Lactamase) was 4.69 µM (active).
In the case of `NC1=NC(=O)/C(=C\c2ccc(-c3ccc(Cl)cc3)o2)S1`, the AC50 [13] is reported as 0.195 µM (active).
In the case of `CC1(C)C2CCC1(C)C1(C2)NC(=O)c2ccccc2O1` (stereo not given), the IC50 (Cysteine protease ATG4B) is reported as 14.8 µM (active) and the IC50 (Phospholipase A2) is reported as 11 µM (active).
For `COc1ccc(S(=O)(=O)N2CCCC(C(=O)Nc3ccc(NC(=O)c4ccccn4)cc3)C2)cc1` (stereo not given), the EC50 [14] was > 120 µM (not active), the EC50 [5] was 0.0809 µM (active) and the EC50 (H4) was 5.33 µM (active).
